Results as given in patent US5183924A, “Derivatives of benzocycloalkenyldihydroxyalkanoic acids, processes of preparation and medications containing them” (Lipha, Lyonnaise Industrielle Pharmaceutique, priority 1989, dated 1993).

How the values were obtained:
TXA2 receptors = biological target: T1, TXA2 receptors (Cavia porcellus, UniProt A0A286Y4I8); assay: Test C: platelet aggregation induced by an agonist of TXA2 receptors (U 46619), in vitro, platelet-rich plasma; format: cell-based; details: guinea pig platelet-rich plasma, U 46619 20 nM, 37° C.
T1 construct: platelet-rich plasmas (PRP) are prepared by aortic punction of anaesthetized animals; endogenous in cells; host or cells: guinea pig platelets in platelet-rich plasma
T1 sequence (A0A286Y4I8 1-347): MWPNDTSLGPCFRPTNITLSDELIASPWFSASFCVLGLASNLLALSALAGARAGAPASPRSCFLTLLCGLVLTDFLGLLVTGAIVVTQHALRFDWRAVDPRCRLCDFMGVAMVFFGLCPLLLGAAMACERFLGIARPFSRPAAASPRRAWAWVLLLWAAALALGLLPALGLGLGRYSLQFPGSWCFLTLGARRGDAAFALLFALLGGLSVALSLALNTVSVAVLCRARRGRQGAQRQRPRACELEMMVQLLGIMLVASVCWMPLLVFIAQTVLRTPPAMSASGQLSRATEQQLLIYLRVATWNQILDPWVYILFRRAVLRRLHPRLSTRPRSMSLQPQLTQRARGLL
Experimental: Test C: Measurement of platelet aggregation induced by an agonist of TXA2 receptors, in the guinea pig in the following manner: platelet-rich plasmas (PRP) are prepared by aortic punction of anaesthetized animals; the blood (9 vol.) is collected onto a 106 mM solution of trisodium citrate (1 vol.) to prevent coagulation. The PRPs are isolated by slow centrifuging (10 min, 380 g), and left to incubate for at least 3 min (37° C., with slow stirring) in an aggregometer of the Chronolog-400 type. The platelet aggregation is induced by addition of a direct agonist of the TXA2 receptors, such as, for example, the compound known by the code name U 46619 (at a concentration of 20 nM) according to Malmstein, Life Sci., 18, 169-178, 1976; the compounds of the invention are tested "in vitro".

total cholesterolaemia = assay: Test B: total cholesterolaemia, in vivo, in the rat treated intravenously with triton WR 1339; details: iv
[1] = test system: hepatic 14C-cholesterogenesis; assay: Test A: hepatic 14C-cholesterogenesis, in vivo, in the rat
Description: Test A: Measurement of hepatic ^14 C-cholesterogenesis, in vivo, in the rat according to the method described by Bucher et al., J Biol. Chem., 222, 1-15, 1956 and Alberts et al., Proc. Natl. Acad. Sci. USA, 77 (7), 3957-3961, 1980.

| Structure (SMILES) | IC50 (TXA2 receptors) | ED25 (total cholesterolaemia) | ED50 [1] |
| --- | --- | --- | --- |
| CCOC(=O)C[C@H](O)C[C@H](O)/C=C/C1=C(c2ccc(F)cc2)c2ccccc2OC12CCCC2 (relative stereo) [Compound No. 1, (+,-)Ethyl 6E-erythro-7-(4-(4-fluorophenyl)-3-spiro(2,1'-cyclopentyl-2H-1-benzopyran))-3,5-dihydroxyhepten-6-oate] | 91 µM | 29 mg/kg | 0.17 mg/kg |
| COC(=O)C[C@H](O)C[C@H](O)/C=C/C1=C(c2ccccc2)c2ccccc2CC1(C)C (relative stereo) [Compound No. 2, (+,-)Methyl 6E-erythro-7-(1,2-dihydro-2,2-dimethyl-4-phenyl-3-naphthyl)-3,5-dihydroxyhept-6-enoate] |  | 100 mg/kg | 0.6 mg/kg |
| CCOC(=O)C[C@H](O)C[C@H](O)/C=C/C1=C(c2ccc(Cl)cc2)c2ccccc2OC12CCCC2 (relative stereo) [Compound No. 19, (+,-)Ethyl 6E-erythro-7-(4-(4-chlorophenyl)-3-spiro(2,1'-cyclopentyl-2H-1-benzopyran))-3,5-dihydroxyhept-6-enoate] | 28 µM | 110 mg/kg | 0.09 mg/kg |
| O=C(O)C[C@H](O)C[C@H](O)/C=C/C1=C(c2ccccc2)c2ccccc2SC12CCCC2 (relative stereo) [Compound No. 65, (+,-)Sodium 6E-erythro-3,5-dihydroxy-7-(4-phenyl-3-spiro(2,1'-cyclopentyl-2H-1-benzothiapyran))hept-6-enoate] |  | 74 mg/kg | 0.38 mg/kg |
| CC[C@H](C)C(=O)O[C@H]1C[C@@H](C)C=C2C=C[C@H](C)[C@H](CC[C@@H]3C[C@@H](O)CC(=O)O3)[C@H]21 [Lovastatine, reference compound] |  | 130 mg/kg | 0.39 mg/kg |
